Data from patent US6147107A, “Specific inhibition of the P42/44 mitogen activated protein (map) kinase cascade sensitizes tumor cells” (priority 1998, dated 2000).
“Also recorded” adds a separate entry of the source. Where two headings read alike, the source gives them in different places.

Tests used:
[1] = system: p42/44 MAP kinase cascade; assay: Inhibition of p42/44 MAP kinase cascade activity in A431 cells; type: cell-based, human; details: PD98059, 1 Gy
Protocol: (§1) Determination of MAPK Activity: Pelleted cells were rinsed in PBS, repelleted, and flash-frozen. Cell pellets were lysed in 25 mM Hepes, pH 7.4 containing 5 mM EGTA, 5 mM EDTA, supplemented with protease inhibitors (5 mM benzamidine, 1 mM phenylmethylsulfonylfluoride, 1 mg/ml soybean trypsin inhibitor, 40 μg/ml aprotinin, 1 μM microcystin LR) phosphatase inhibitors (0.5 mM trisodium orthovanadate, 0.5 mM tetrasodium pyrophosphate), and containing 0.056% sodium deoxycholate w/v, 1% Triton X-100 v/v, and 0.1% 2-mercaptoethanol v/v. Lysates were clarified by centrifugation at 5,000× g at 4° C. for 5 min. MAPK activity was assayed using MBP as a substrate following immunoprecipitation of p42/44 MAP kinase with protein A/agarose-conjugated antibody/antisera. Preimmune controls were also run to ensure selectivity of substrate phosphorylation. Reaction mixtures consisted of immunoprecipitated enzyme, substrate, and [γ-^32 P] ATP ([…]) in 25 mM Hepes, pH 7.4 containing 15 mM MgCl2, […], 0.01% (v/v) 2-mercaptoethanol, 1 μM […]. Reactions were initiated by the addition of substrate. MAPK reactions were terminated by transfer to p81 filter paper; filters were rinsed repeatedly in 185 mM orhtophosphoric acid, and then dehydrated in acetone. Total radioactivity in filters was determined by liquid scintillometry.

[2] = system: MEK1 and MEK2; assay: Inhibition of Raf-mediated phosphorylation/activation of MEK1/2; type: biochemical
[3] = system: HL-60 cells; assay: Clonogenicity of HL-60 cells; type: cell-based, human
Protocol: (§2) FIGS. 9a and 9b. […] HL-60 cells were exposed to ara-C (10 μM) in the absence or presence of aminomethoxyflavone (PD98059; 2.5 μM) for 6 hours. Apoptotic DNA damage and cell death were assessed as described in Methods. […] FIG. 9b.
Determination of Clonogenicity: Pelleted cells were rinsed extensively and prepared for soft-agar cloning. Cells were resuspended in cold PBS and seeded in 35-mm culture plates at a fixed density (400 cell/ml/well) in complete RPMI-1640 medium containing 20% fetal calf serum, 10% 5637-CM, and 0.3% Bacto agar. Cultures were mainatined for 10 to 12 days before formation of colonies (defined as groups of ≥50 cells) was scored.

[4] = system: HL-60 cells; assay: Apoptosis of HL-60 cells (ara-C); type: cell-based, human
Protocol: as §2

[5] = system: A431 cells; assay: [3H]thymidine incorporation into DNA of A431 cells; type: cell-based, human; details: PD98059 alone, over 96 hours; not shown
[6] = system: A431 cells; assay: TUNEL assay, apoptosis of A431 cells after radiation; type: cell-based, human
Protocol: The ability of the cells to survive was assessed using TUNEL assays 24 hours after irradiation and the results are depicted in FIG. 4.

[7] = system: HL-60 cells; assay: DNA strand breakage in HL-60 cells; type: cell-based, human; details: ara-C (10 μM) + PD98059 (2.5 μM), 6 hours
Protocol: as §2
Quantitative Analysis of DNA Damage: The formation and release of DNA fragments and the corresponding breakage of bulk DNA were assessed by bisbenzamide spectrofluorophtometry. To measure intracellular DNA fragments, pelleted cells (4×10^6 cells/pellet in quadruplicate)were resuspended in PBS and lysed by addition of 5 mM Tris-HCl, 30 mM EGTA, 30 mM EDTA, 0.1% Triton X-100, pH 8 (yielding a final density of 10^7 cells,ml) with gentle mechanical agitation. The lysates were centrifuged at 30,000× g at 4° C. for 40 minutes. […] The pellets were discarded and the presence of non-sedimenting DNA fragments in the supernatant from the lysate and medium extracts was quantified following dilution in modified Tris-sodium EGTA buffer (3 mM NaCl, 10 mM Tris-HCl, 1 mM EGTA, pH 8) by spectrofluorophotometry in the presence of Hoechst-33258 (1 μg/ml; μex=365, λem=460). Net fluorescence was directly proportional to the presence of DNA fragments; final values were calculated relative to a highly purified calf thymus DNA calibration standard, and are expressed as ng/μg DNA recovered or released from 10^6 cells. […]

[8] = system: HL-60 cells; assay: Taxol-mediated apoptosis of HL-60 cells
[9] = system: p42/44 MAP kinase; assay: MAP kinase activity in HL-60 cells (immunoprecipitation, MBP substrate); type: cell-based, human
Protocol: FIG. 8. […] HL-60 cells were exposed to ara-C (10 μM) in the absence or presence of aminomethoxyflavone (PD98059; 2.5 μM) for 3 hours. MAP kinase activity (p42-ERK1/p44-ERK2) was determined by in vitro assay. In each case, values reflect the mean ±SE of duplicate determinations, and are expressed as a percentage of basal activity present in untreated controls.
as §1
HL-60 cells were exposed to ara-C in the absence or presence of PD98059. Following this treatment, the cells were eveluated for MAP kinase activity, DNA strand breakage, clonogenicity potential and extent of apoptosis.

[10] = system: A431 cells; assay: Propidium iodide staining (necrosis/cell integrity) of A431 cells after radiation; type: cell-based, human; details: PD98059 + 1 Gy; data not shown
[11] = system: A431 cells
[12] = system: MEK1 and MEK2; details: general statement on known inhibitors; cited from earlier work
[13] = system: cancer cells; assay: Radiosensitization of cancer cells; type: cell-based; details: general statement
[14] = ara-C (10 μM) + PD98059 (2.5 μM), 6 hours

Compound: COc1cccc(-c2cc(=O)c3ccccc3o2)c1N [PD98059, 2'-amino-3'-methoxy-flavone]
- correlation of MAP kinase cascade inhibition with potentiation of cell death [1]: correlated with its dose-dependent ability to potentiate cell death
- inhibition of MEK1 and MEK2 ([2]; general statement): all inhibit MEK1 and MEK2
- inhibition of Raf phosphorylation of MEK1 and MEK2 ([2]; stated as demonstrated by the applicant): inhibiting the ability of Raf protein kinases to phosphorylate MEK1 and MEK2
- clonogenic potential [3, 14]: practically nullified
- clonogenic potential, single agent ([3]; either agent alone): neither alone had this effect
- potentiation of apoptotic activity of ara-C ([4]; PD98059 + ara-C): Potentiation of ara-C-induced apoptosis; also recorded: highly effective
- extent of apoptosis attributable to ara-C action [4, 14]: dramatically increased
- proliferative capacity ([3H]thymidine incorporation) [5]: overall dose-dependent decrease in proliferative capacity
- enhancement ratio, co-treatment versus either radiation or PD98059 alone ([6]; 5 μM PD98059 + 1 Gy): approximately threefold
- percentage of cells exhibiting double stranded DNA breaks ([6]; 5 μM PD98059 + 1 Gy, increased from ~4 to 15): 4-15%
- amount of cell killing compared to either treatment alone ([6]; 5 μM PD98059 + single 1 Gy exposure): tripled
- potentiation of cell death (TUNEL) ([6]; 5, 10 and 20 μM PD98059 + 1 Gy radiation): large potentiation of cell death
- effect upon the basal levels of cell viability ([6]; PD98059 alone, low concentrations, 24 hours): small non-significant detrimental effect
- DNA strand breakage induced by ara-C [7]: substantially increased
- cytotoxicity at 10 µM ([8]; Homo sapiens, HL-60, 15 h, read-out: apoptotic cells, PD98059 alone): 6 to 7%
- cell death, taxol plus PD98059 ([8]; taxol 0.5 μM + PD98059 10 μM): 58%
- MAP kinase activity ([9]; 2.5 μM PD98059, with or without ara-C (10 μM), 3 hours): Suppression of MAP kinase activity
- suppression of ara-C-related stimulation of MAP kinase ([9]; 5 μM PD98059 + ara-C): completely suppresses
- basal MAP kinase activity ([9]; 1-100 μM PD98059, acute exposure): pronounced concentration-related decline
- Emax ([9]; Homo sapiens, HL-60, 1-100 μM PD98059, read-out: maximal decrease of basal MAP kinase activity): ≥ 65%
- EC50 ([9]; Homo sapiens, HL-60, PD98059, acute exposure, read-out: EC50, decline of basal MAP kinase activity): ≤ 5 µM
- potentiation of cell death (propidium iodide staining of unfixed cells) [10]: large potentiation of cell death
- cellular proliferation (MTT) ([11]; 5, 10 or 20 μM PD98059 + 1 Gy): markedly decreased cellular proliferation
- enhancement ratios (MTT) ([11]; PD98059 + 1 Gy): at least threefold
- proliferative rate (MTT) ([11]; PD98059 + 1 Gy radiation, 4-8 days): Decreased proliferative rate
- proliferative capacity versus either exposure or treatment alone (MTT) ([11]; PD98059 + radiation, 4-8 days): large reduction in proliferative capacity
- proliferative rate (MTT) ([11]; PD98059 alone, 4-8 days): Decreased proliferative rate
- mode of action at MEK1/2 [12]: bind to MEK1/2 and sterically prevent Raf from binding
- radiosensitization of cancer cells [13]: all cause radiosensitization of cancer cells
